In ChEMBL document CHEMBL2406972, “Synthesis and antitumor activities of novel dibenzo[b,d]furan-imidazole hybrid compounds” (Eur J Med Chem, 2013):

Columns and labels:
Assay type in all cases: functional, cell-based
HL-60 = assay: Cytotoxicity against human HL60 cells after 48 hrs by MTT assay; settings: HL-60, 48 h
A549 = assay: Cytotoxicity against human A549 cells after 48 hrs by MTT assay; settings: A549, 48 h
MCF7 = assay: Cytotoxicity against human MCF7 cells after 48 hrs by MTT assay; settings: MCF7, 48 h
SW480 = assay: Cytotoxicity against human SW480 cells after 48 hrs by MTT assay; settings: SW480, 48 h
SMMC-7721 = assay: Cytotoxicity against human SMMC7721 cells after 48 hrs by MTT assay; settings: SMMC-7721, 48 h

Row | SMILES | IC50 (HL-60) | IC50 (A549) | IC50 (MCF7) | IC50 (SW480) | IC50 (SMMC-7721)
1 | COc1ccc(C(=O)C[n+]2cn(C(C)c3ccc4oc5ccccc5c4c3)c3ccccc32)cc1 (stereo not given) | 2.05 µM | 5.95 µM | 3.42 µM | 3.18 µM | 2.95 µM
2 | CC(c1ccc2oc3ccccc3c2c1)n1cc[n+](Cc2ccc([N+](=O)[O-])cc2)c1 (stereo not given) | 11.3 µM | > 40 µM | 13.8 µM | > 40 µM | 22.5 µM
3 | CC(c1ccc2oc3ccccc3c2c1)n1cc[n+](CC(=O)c2ccccc2)c1 (stereo not given) | 2.55 µM | 27 µM | 14.1 µM | 14.4 µM | 12.1 µM
4 | c1ccc(C(c2ccc3oc4ccccc4c3c2)n2cnc3ccccc32)cc1 (stereo not given) | 17.2 µM | 23.4 µM | 20.9 µM | > 40 µM | 25.4 µM
5 | CC(c1ccc2oc3ccccc3c2c1)n1ccnc1 (stereo not given) | > 40 µM | > 40 µM | > 40 µM | > 40 µM | > 40 µM
6 | Cc1nccn1C(c1ccccc1)c1ccc2oc3ccccc3c2c1 (stereo not given) | 14.5 µM | 18.2 µM | 23.5 µM | > 40 µM | 30.2 µM
7 | CC(c1ccc2oc3ccccc3c2c1)n1cc[n+](CC(=O)c2ccc(Br)cc2)c1 (stereo not given) | 2.95 µM | 13.7 µM | 4.08 µM | 6.85 µM | 11 µM
8 | CC(c1ccc2oc3ccccc3c2c1)n1c[n+](Cc2ccc([N+](=O)[O-])cc2)c2ccccc21 (stereo not given) | 5.93 µM | 32.3 µM | 13.8 µM | 13.4 µM | 18.4 µM
9 | O=C(C[n+]1cn(C(c2ccccc2)c2ccc3oc4ccccc4c3c2)c2ccccc21)c1ccccc1 (stereo not given) | 2.3 µM | 13.6 µM | 2.5 µM | 3.54 µM | 4.61 µM
10 | O=C(C[n+]1ccn(C(c2ccccc2)c2ccc3oc4ccccc4c3c2)c1)c1ccc(F)cc1 (stereo not given) | 3 µM | 10.2 µM | 4 µM | 5.16 µM | 14.5 µM
11 | Cc1n(C(C)c2ccc3oc4ccccc4c3c2)cc[n+]1CC(=O)c1ccccc1 (stereo not given) | 2.85 µM | 17.9 µM | 4.49 µM | 10.1 µM | 3.02 µM
12 | CC(c1ccc2oc3ccccc3c2c1)n1cc[n+](CC(=O)c2ccc(F)cc2)c1 (stereo not given) | 2.64 µM | 22.6 µM | 16.7 µM | 16.4 µM | 17.5 µM
13 | COc1ccc(C(=O)C[n+]2ccn(C(C)c3ccc4oc5ccccc5c4c3)c2C)cc1 (stereo not given) | 0.7 µM | 3.02 µM | 1.29 µM | 5.78 µM | 1.43 µM
14 | O=C(C[n+]1ccn(C(c2ccccc2)c2ccc3oc4ccccc4c3c2)c1)c1ccc(Br)cc1 (stereo not given) | 2.13 µM | 7.7 µM | 3.32 µM | 2.11 µM | 10.8 µM
15 | COc1ccc(C(=O)C[n+]2cn(C(c3ccccc3)c3ccc4oc5ccccc5c4c3)c3ccccc32)cc1 (stereo not given) | 0.64 µM | 3.34 µM | 4.78 µM | 5.56 µM | 2.1 µM
16 | Cc1n(C(c2ccccc2)c2ccc3oc4ccccc4c3c2)cc[n+]1CC(=O)c1ccc2ccccc2c1 (stereo not given) | 0.98 µM | 3.78 µM | 2.31 µM | 2.62 µM | 2.57 µM
17 | Cc1n(C(C)c2ccc3oc4ccccc4c3c2)cc[n+]1CC(=O)c1ccc(O)cc1 (stereo not given) | 12.2 µM | 28.6 µM | 26.4 µM | 37.5 µM | 13.3 µM
18 | CC(c1ccc2oc3ccccc3c2c1)n1cnc2ccccc21 (stereo not given) | > 40 µM | > 40 µM | > 40 µM | > 40 µM | > 40 µM
19 | Cc1n(C(c2ccccc2)c2ccc3oc4ccccc4c3c2)cc[n+]1CC(=O)c1ccc(F)cc1 (stereo not given) | 2.13 µM | 4.88 µM | 3.23 µM | 1.89 µM | 4.22 µM
20 | CC(c1ccc2oc3ccccc3c2c1)n1c[n+](C(C(=O)c2ccccc2)c2ccccc2)c2ccccc21 (stereo not given) | 2.79 µM | 12.7 µM | 9.35 µM | 10.5 µM | 5.4 µM
21 | c1ccc(C(c2ccc3oc4ccccc4c3c2)n2ccnc2)cc1 (stereo not given) | 21 µM | 24.6 µM | > 40 µM | > 40 µM | 33.7 µM
22 | CCCC[n+]1ccn(C(c2ccccc2)c2ccc3oc4ccccc4c3c2)c1 (stereo not given) | 1.1 µM | 11.4 µM | 6.03 µM | 13.1 µM | 8.13 µM
23 | CC(c1ccc2oc3ccccc3c2c1)n1c[n+](CC(=O)c2ccc(O)cc2)c2ccccc21 (stereo not given) | 2.35 µM | 20.1 µM | 14.2 µM | 16.3 µM | 24.1 µM
24 | O=C(c1ccccc1)C(c1ccccc1)[n+]1ccn(C(c2ccccc2)c2ccc3oc4ccccc4c3c2)c1 (stereo not given) | 0.52 µM | 3.75 µM | 1.46 µM | 2.36 µM | 2.38 µM
